Reference: ChEMBL document CHEMBL4308841, “Synthesis, in vitro antiproliferative activity, and kinase inhibitory effects of pyrazole-containing diarylureas and diarylamides” (Eur J Med Chem, 2018)

Columns and labels:
[1] = system: SNB-75; assay: Growth inhibition of human SNB75 cells incubated for 48 hrs by sulforhodamine B assay; assay type: functional, cell-based; settings: SNB-75, 48 h
[2] = system: HCC 2998; assay: Growth inhibition of human HCC2998 cells assessed as cell growth at 0.1 uM incubated for 48 hrs by sulforhodamine B assay relative to control; assay type: functional; settings: HCC 2998, 48 h, read-out: Activity
[3] = system: NCI-H322M; assay: Growth inhibition of human NCI-H322M cells assessed as cell growth at 0.1 uM incubated for 48 hrs by sulforhodamine B assay relative to control; assay type: functional; settings: read-out: Activity
[4] = system: CAKI-1; assay: Growth inhibition of human Caki1 cells assessed as cell growth at 0.01 uM incubated for 48 hrs by sulforhodamine B assay relative to control; assay type: functional; settings: CAKI-1, 48 h, read-out: Activity
[5] = system: NCI-H23; assay: Growth inhibition of human NCI-H23 cells assessed as cell growth at 0.01 uM incubated for 48 hrs by sulforhodamine B assay relative to control; assay type: functional; settings: NCI-H23, 48 h, read-out: Activity
[6] = system: A549; assay: Growth inhibition of human A549/ATCC cells assessed as cell growth at 0.01 uM incubated for 48 hrs by sulforhodamine B assay relative to control; assay type: functional; settings: A549, 48 h, read-out: Activity
[7] = system: SK-MEL-28; assay: Growth inhibition of human SK-MEL-28 cells assessed as cell growth at 0.1 uM incubated for 48 hrs by sulforhodamine B assay relative to control; assay type: functional; settings: SK-MEL-28, 48 h, read-out: Activity
[8] = system: SNB-19; assay: Growth inhibition of human SNB19 cells assessed as cell growth at 1 uM incubated for 48 hrs by sulforhodamine B assay relative to control; assay type: functional; settings: SNB-19, 48 h, read-out: Activity
[9] = system: 786-0; assay: Growth inhibition of human 786-0 cells assessed as cell growth at 1 uM incubated for 48 hrs by sulforhodamine B assay relative to control; assay type: functional; settings: 786-0, 48 h, read-out: Activity
[10] = system: SF-295; assay: Growth inhibition of human SF295 cells assessed as cell growth at 0.01 uM incubated for 48 hrs by sulforhodamine B assay relative to control; assay type: functional; settings: SF-295, 48 h, read-out: Activity
[11] = system: IGROV-1; assay: Growth inhibition of human IGROV1 cells incubated for 48 hrs by sulforhodamine B assay; assay type: functional, cell-based; settings: IGROV-1, 48 h
[12] = system: MCF7; assay: Growth inhibition of human MCF7 cells incubated for 48 hrs by sulforhodamine B assay; assay type: functional, cell-based; settings: MCF7, 48 h
[13] = system: NCI-H23; assay: Growth inhibition of human NCI-H23 cells assessed as cell growth at 100 uM incubated for 48 hrs by sulforhodamine B assay relative to control; assay type: functional; settings: NCI-H23, 48 h, read-out: Activity
[14] = system: UO-31; assay: Growth inhibition of human UO31 cells assessed as cell growth at 1 uM incubated for 48 hrs by sulforhodamine B assay relative to control; assay type: functional; settings: UO-31, 48 h, read-out: Activity
[15] = system: SW-620; assay: Growth inhibition of human SW620 cells incubated for 48 hrs by sulforhodamine B assay; assay type: functional, cell-based; settings: SW-620, 48 h
[16] = system: COLO 205; assay: Growth inhibition of human COLO205 cells assessed as cell growth at 100 uM incubated for 48 hrs by sulforhodamine B assay relative to control; assay type: functional; settings: COLO 205, 48 h, read-out: Activity
[17] = system: NCI-H322M; assay: Growth inhibition of human NCI-H322M cells assessed as cell growth at 0.01 uM incubated for 48 hrs by sulforhodamine B assay relative to control; assay type: functional; settings: read-out: Activity
[18] = system: SR; assay: Growth inhibition of human SR cells assessed as cell growth at 1 uM incubated for 48 hrs by sulforhodamine B assay relative to control; assay type: functional; settings: read-out: Activity
[19] = system: T47D; assay: Growth inhibition of human T47D cells assessed as cell growth at 100 uM incubated for 48 hrs by sulforhodamine B assay relative to control; assay type: functional; settings: read-out: Activity
[20] = system: MDA-MB-468; assay: Growth inhibition of human MDA-MB-468 cells assessed as cell growth at 0.1 uM incubated for 48 hrs by sulforhodamine B assay relative to control; assay type: functional; settings: MDA-MB-468, 48 h, read-out: Activity
[21] = system: SK-OV-3; assay: Growth inhibition of human SKOV3 cells assessed as cell growth at 0.01 uM incubated for 48 hrs by sulforhodamine B assay relative to control; assay type: functional; settings: SK-OV-3, 48 h, read-out: Activity
[22] = system: SNB-75; assay: Growth inhibition of human SNB75 cells assessed as cell growth at 0.01 uM incubated for 48 hrs by sulforhodamine B assay relative to control; assay type: functional; settings: SNB-75, 48 h, read-out: Activity
[23] = system: CCRF-CEM; assay: Growth inhibition of human CCRF-CEM cells assessed as cell growth at 0.1 uM incubated for 48 hrs by sulforhodamine B assay relative to control; assay type: functional; settings: read-out: Activity
[24] = system: HCT-15; assay: Growth inhibition of human HCT15 cells assessed as cell growth at 0.01 uM incubated for 48 hrs by sulforhodamine B assay relative to control; assay type: functional; settings: HCT-15, 48 h, read-out: Activity
[25] = system: CAKI-1; assay: Growth inhibition of human Caki1 cells assessed as cell growth at 100 uM incubated for 48 hrs by sulforhodamine B assay relative to control; assay type: functional; settings: CAKI-1, 48 h, read-out: Activity
[26] = system: RXF 393; assay: Growth inhibition of human RXF393 cells assessed as cell growth at 100 uM incubated for 48 hrs by sulforhodamine B assay relative to control; assay type: functional; settings: RXF 393, 48 h, read-out: Activity
[27] = system: UACC-257; assay: Growth inhibition of human UACC257 cells assessed as cell growth at 0.01 uM incubated for 48 hrs by sulforhodamine B assay relative to control; assay type: functional; settings: UACC-257, 48 h, read-out: Activity
[28] = system: SR; assay: Growth inhibition of human SR cells assessed as cell growth at 0.1 uM incubated for 48 hrs by sulforhodamine B assay relative to control; assay type: functional; settings: read-out: Activity
[29] = system: MDA-MB-231; assay: Growth inhibition of human MDA-MB-231 cells assessed as cell growth at 0.01 uM incubated for 48 hrs by sulforhodamine B assay relative to control; assay type: functional; settings: MDA-MB-231, 48 h, read-out: Activity
[30] = system: HL-60(TB); assay: Growth inhibition of human HL-60(TB) cells incubated for 48 hrs by sulforhodamine B assay; assay type: functional, cell-based; settings: HL-60, 48 h
[31] = read-out: LC50 (the source's name)
[32] = read-out: pLC50 (the source's name) (converted)

SMILES: COc1cc(Cl)cc(-c2nn(-c3cccc(NC(=O)c4ccc(N5CCOCC5)c(C(F)(F)F)c4)c3)cc2-c2ccncc2)c1
- GI50 ([1]; read-out: GI50): 2 µM
- CC50 [1, 31]: > 100 µM
- TGI ([1]; read-out: TGI): > 100 µM
- GI50 ([1]; read-out: pGI50 (converted)): 2.63 µM
- CC50 [1, 32]: > 100 µM
- TGI ([1]; read-out: pTGI (converted)): > 100 µM
- growth at 0.1 µM [2]: 94%
- growth at 0.1 µM [3]: 94%
- growth at 0.01 µM [4]: 98%
- growth at 0.01 µM [5]: 92%
- growth at 0.01 µM [6]: 103%
- growth at 0.1 µM [7]: 103%
- growth at 1 µM [8]: 92%
- growth at 1 µM [9]: 74%
- growth at 0.01 µM [10]: 90%
- GI50 ([11]; read-out: GI50): > 100 µM
- CC50 [11, 31]: > 100 µM
- TGI ([11]; read-out: TGI): > 100 µM
- GI50 ([11]; read-out: pGI50 (converted)): > 100 µM
- CC50 [11, 32]: > 100 µM
- TGI ([11]; read-out: pTGI (converted)): > 100 µM
- GI50 ([12]; read-out: GI50): 5.71 µM
- LC50 ([12]; read-out: LC50): > 100 µM
- TGI ([12]; read-out: TGI): > 100 µM
- GI50 ([12]; read-out: pGI50 (converted)): 8.71 µM
- LC50 ([12]; read-out: pLC50 (converted)): > 100 µM
- TGI ([12]; read-out: pTGI (converted)): > 100 µM
- growth at 100 µM [13]: 38%
- growth at 1 µM [14]: 52%
- GI50 ([15]; read-out: GI50): 2.96 µM
- LC50 ([15]; read-out: LC50): > 100 µM
- TGI ([15]; read-out: TGI): > 100 µM
- GI50 ([15]; read-out: pGI50 (converted)): 29.5 µM
- LC50 ([15]; read-out: pLC50 (converted)): > 100 µM
- TGI ([15]; read-out: pTGI (converted)): > 100 µM
- growth at 100 µM [16]: 38%
- growth at 0.01 µM [17]: 97%
- growth at 1 µM [18]: 52%
- growth at 100 µM [19]: 33%
- growth at 0.1 µM [20]: 92%
- growth at 0.01 µM [21]: 102%
- growth at 0.01 µM [22]: 58%
- growth at 0.1 µM [23]: 101%
- growth at 0.01 µM [24]: 94%
- growth at 100 µM [25]: 14%
- growth at 100 µM [26]: -10%
- growth at 0.01 µM [27]: 91%
- growth at 0.1 µM [28]: 91%
- growth at 0.01 µM [29]: 99%
- GI50 ([30]; read-out: GI50): 4.19 µM
- LC50 ([30]; read-out: LC50): > 100 µM
- TGI ([30]; read-out: TGI): 33.2 µM
- GI50 ([30]; read-out: pGI50 (converted)): 4.17 µM
- LC50 ([30]; read-out: pLC50 (converted)): > 100 µM
- TGI ([30]; read-out: pTGI (converted)): 33.1 µM

SMILES: COc1cc(Cl)cc(-c2nn(-c3cccc(NC(=O)Nc4cccc(C(F)(F)F)c4)c3)cc2-c2ccncc2)c1
- GI50 ([1]; read-out: GI50): 1.76 µM
- CC50 [1, 31]: > 100 µM
- TGI ([1]; read-out: TGI): 13.9 µM
- GI50 ([1]; read-out: pGI50 (converted)): 1.78 µM
- CC50 [1, 32]: > 100 µM
- TGI ([1]; read-out: pTGI (converted)): 13.8 µM
- growth at 0.1 µM [2]: 98%
- growth at 0.1 µM [3]: 94%
- growth at 0.01 µM [4]: 102%
- growth at 0.01 µM [5]: 97%
- growth at 0.01 µM [6]: 100%
- growth at 0.1 µM [7]: 100%
- growth at 1 µM [8]: 77%
- growth at 1 µM [9]: 77%
- growth at 0.01 µM [10]: 94%
- GI50 ([11]; read-out: GI50): 2.56 µM
- CC50 [11, 31]: > 100 µM
- TGI ([11]; read-out: TGI): 22.7 µM
- GI50 ([11]; read-out: pGI50 (converted)): 2.88 µM
- CC50 [11, 32]: > 100 µM
- TGI ([11]; read-out: pTGI (converted)): 22.9 µM
- GI50 ([12]; read-out: GI50): 1.48 µM
- LC50 ([12]; read-out: LC50): > 100 µM
- TGI ([12]; read-out: TGI): 75.7 µM
- GI50 ([12]; read-out: pGI50 (converted)): 1.48 µM
- LC50 ([12]; read-out: pLC50 (converted)): > 100 µM
- TGI ([12]; read-out: pTGI (converted)): 7.59 µM
- growth at 100 µM [13]: -40%
- growth at 1 µM [14]: 51%
- GI50 ([15]; read-out: GI50): 2.3 µM
- LC50 ([15]; read-out: LC50): > 100 µM
- TGI ([15]; read-out: TGI): 25.8 µM
- GI50 ([15]; read-out: pGI50 (converted)): 2.29 µM
- LC50 ([15]; read-out: pLC50 (converted)): > 100 µM
- TGI ([15]; read-out: pTGI (converted)): 26.9 µM
- growth at 100 µM [16]: -95%
- growth at 0.01 µM [17]: 99%
- growth at 1 µM [18]: 55%
- growth at 100 µM [19]: -25%
- growth at 0.1 µM [20]: 92%
- growth at 0.01 µM [21]: 92%
- growth at 0.01 µM [22]: 83%
- growth at 0.1 µM [23]: 97%
- growth at 0.01 µM [24]: 92%
- growth at 100 µM [25]: -20%
- growth at 100 µM [26]: -80%
- growth at 0.01 µM [27]: 90%
- growth at 0.1 µM [28]: 93%
- growth at 0.01 µM [29]: 102%
- GI50 ([30]; read-out: GI50): 1.91 µM
- LC50 ([30]; read-out: LC50): > 100 µM
- TGI ([30]; read-out: TGI): 55.1 µM
- GI50 ([30]; read-out: pGI50 (converted)): 1.91 µM
- LC50 ([30]; read-out: pLC50 (converted)): > 100 µM
- TGI ([30]; read-out: pTGI (converted)): 5.5 µM
